Consider two compounds from PubChem BioAssay AID2060901 (Molecular Pharmacology Branch, DTP, NCI, 2025).

A value given as a limit tells only on which side of the number the result lay.

The test system of the test is 422866-222-R5-J1-PDC complex spheroids viability. As to the kind of experiment: Anticancer human tumor 422866-222-R5-J1-PDC patient-derived pancreatic adenocarcinoma cell line growth inhibition [RAS]. The following applies: for viability, T/C: stronger effect = lower value. The source says: RAS pathway inhibitors in Combinations in Complex Spheroids
A high-throughput screen of multi-cell type tumor spheroids was designed to identify active combinations of RAS pathway inhibitors and targeted small molecules. Complex spheroids include a stromal component modeled by human endothelial cells (HUVEC) and fibroblasts modeled by human mesenchymal stem cells (MSCs). The concentration ranges selected for each drug and investigational agent were based upon clinically achievable concentrations if the clinical Cmax of the agent was known.
Compounds. The drugs and investigational agents: abemaciclib (NSC768073), cobimetinib (NSC768068), divarasib (GDC6063, NSC841802), docetaxel (NSC628503), GDC-1971 (RLY-1971, NSC841576), gemcitabine (NSC613327), inavolisib (NSC800729), ipatasertib (NSC767898), KB-0742 (NSC834161), MRTX-1133 (NSC836407), osimertinib (NSC779217), RMC-4630 (NSC839698), RMC-6236 (NSC851965), RMC-6291 (NSC852671), Ro-3306 (NSC812927), sapanisertib (NSC764658), SN-38 (NSC673596), staurosporine (NSC755774), SY5609 (NSC837396), and tovorafenib (DAY101, NSC766906), were obtained from the National Cancer Institute (NCI) Developmental Therapeutics Program Chemical Repository. The FDA-approved anticancer drug set is available from the NCI Developmental Therapeutics Program. […] The stock solutions were prepared in dimethyl sulfoxide (DMSO, Sigma-Aldrich, St. Louis, MO, cat. D2650) at 800-fold the tested concentration and stored at -70 degrees C prior to their use. All drugs and investigational agents were tested over a range starting from a high concentration at or near the clinical Cmax and decreasing in half-log increments. If the clinical Cmax for an agent had not been determined, the highest concentration tested was 10 microM.
Cell Culture. All cells were maintained in an incubator at 37 degrees C and 5% CO2 with 95% humidity. The PDC lines were cultured according to standard operating procedures established by the NCI PDMR. All PDCs were thawed and cultured in Matrigel-coated flasks prepared with a working solution of 1X Ham's F-12 nutrient mix, without supplementation (Invitrogen, Waltham, MA, cat. 11765054), 100 U/mL penicillin-streptomycin (Invitrogen, cat. 15140122), and 2.5% Matrigel (Corning Inc., Corning, NY, cat. 354248) for the first three passages. The 362531-283-R-J2-PDC and 782815-120-R-J1-PDC lines were cultured in 6C/Colon 1B media, which includes advanced DMEM/F-12 (Thermo Fisher Scientific, cat. 12634028), 10 mM HEPES (Thermo Fisher Scientific, cat. 15630080), 1X GlutaMAX supplement (Thermo Fisher Scientific, cat. 35050061), 0.1 mg/mL primocin (InvivoGen, San Diego, CA, cat. ant-pm-2), 10% defined fetal bovine serum, heat inactivated (HyClone Laboratories Inc., Logan, UT, cat. SH30070.03HI), 50% L-WRN conditioned media (ATCC, cat. CRL-3276), 1.25 mM N-Acetyl-L-cysteine (Sigma-Aldrich, cat. A9165), 10 mM nicotinamide (Sigma-Aldrich, cat. N0636), 1X B-27 supplement (Thermo Fisher Scientific, cat. 17504044), 1X N-2 supplement (Thermo Fisher Scientific, cat. 17502048), 50 ng/mL human EGF (Thermo Fisher Scientific, cat. PHG0311), and 10 microM Y-27632 dihydrochloride (Tocris Bioscience, cat. 1254). The K12877-001-R-J1-PDC line was cultured in 6I media, which includes all 6C/Colon 1B media plus 10 ng/mL human FGF-10 (PeproTech, cat. 100-26), 1 ng/mL human FGF-2 (PeproTech, cat. 100-18B), 1 µM prostaglandin E2 (Tocris Bioscience, cat. 2296), […] hydrocortisone (Sigma-Aldrich, cat. H4001), and […] bovine insulin (Sigma-Aldrich, cat. I6634). The K86415-001-R-J1-PDC line was cultured in 6D media, which includes all 6C/Colon 1B media components minus the L-WRN conditioned media. The 485176-168-R4-J1-PDC was cultured in PANC media, which includes all 6C/Colon 1B media plus 100 ng/mL human FGF-10 (PeproTech, cat. 100-26), 500 nM SB-431542 (Selleckchem, cat. S1067), and 10 nM gastrin (Tocris Bioscience, cat. 3006). […]

As a reminder, the IC50 is the point on the concentration scale where inhibition reaches its midpoint. The viability, T/C is the ratio of treated to control.
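Further: spheroids exposed to compounds for 7 days.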

On to `CC1(O)CCCC1n1c(=O)c(C(F)F)cc2cnc(NC3CCN(S(C)(=O)=O)CC3)nc21` (stereo not drawn) + C#Cc1c(F)ccc2cc(O)cc(-c3ncc4c(N5CC6CCC(C5)N6)nc(OCC56CCCN5CC(F)C6)nc4c3F)c12, for which the half-inhibitory concentration (IC50) is 7.57 µM (curve of first compound, second compound 0.0316 µM); 8.44 µM (curve of first compound, second compound 0.1 µM); over 10 µM (curve of first compound, second compound 0.316 µM); under 0.0316 µM (curve of first compound, second compound 1 µM); under 0.0316 µM (curve of first compound, second compound 3.16 µM); under 0.0316 µM (curve of first compound, second compound 10 µM). The viability, T/C is, setting by setting: (second compound 0.0316 µM, first compound 0.0316 µM) 73.3%; (second compound 0.0316 µM, first compound 0.1 µM) 79.7%; (second compound 0.0316 µM, first compound 0.316 µM) 87.4%; (second compound 0.0316 µM, first compound 1 µM) 75.5%; (second compound 0.0316 µM, first compound 3.16 µM) 69.4%; (second compound 0.0316 µM, first compound 10 µM) 43.5%. The viability, T/C was 85% (second compound 0.1 µM, first compound 0.0316 µM); 69.9% (second compound 0.1 µM, first compound 0.1 µM); 72.5% (second compound 0.1 µM, first compound 0.316 µM); 78.8% (second compound 0.1 µM, first compound 1 µM); 73% (second compound 0.1 µM, first compound 3.16 µM); 46% (second compound 0.1 µM, first compound 10 µM). The viability, T/C runs as follows: (second compound 0.316 µM, first compound 0.0316 µM) 67.3%; (second compound 0.316 µM, first compound 0.1 µM) 67.5%; (second compound 0.316 µM, first compound 0.316 µM) 64.5%; (second compound 0.316 µM, first compound 1 µM) 62.5%; (second compound 0.316 µM, first compound 3.16 µM) 72.6%; (second compound 0.316 µM, first compound 10 µM) 41.6%. Further, the viability, T/C (second compound 1 µM, first compound 0.0316 µM) was 55.4%; the viability, T/C (second compound 1 µM, first compound 0.1 µM) is 43.7%; the viability, T/C (second compound 1 µM, first compound 0.316 µM) is 42.2%; the viability, T/C (second compound 1 µM, first compound 1 µM) was 60.8%; the viability, T/C (second compound 1 µM, first compound 3.16 µM) was 70.4%; the viability, T/C (second compound 1 µM, first compound 10 µM) was 43.3%. Further, the viability, T/C was 29.6% (second compound 3.16 µM, first compound 0.0316 µM); 27.6% (second compound 3.16 µM, first compound 0.1 µM); 31.6% (second compound 3.16 µM, first compound 0.316 µM); 31.9% (second compound 3.16 µM, first compound 1 µM); 42.2% (second compound 3.16 µM, first compound 3.16 µM); 32.3% (second compound 3.16 µM, first compound 10 µM). In addition, the viability, T/C was 21% (second compound 10 µM, first compound 0.0316 µM); 21.5% (second compound 10 µM, first compound 0.1 µM); 25% (second compound 10 µM, first compound 0.316 µM); 29.3% (second compound 10 µM, first compound 1 µM); 42.1% (second compound 10 µM, first compound 3.16 µM); 36.5% (second compound 10 µM, first compound 10 µM).
Turning to `CCC(CC)c1cc(NC2CCC(N)C2)n2nccc2n1` (stereo not drawn), the viability, T/C by setting is: (compound 0.0316 µM) 99.2% [middle of 4 runs]; (compound 0.316 µM) 116% [middle of 4 runs]; (compound 1 µM) 106% [middle of 4 runs]; (compound 3.16 µM) 29.1% [middle of 4 runs]; (compound 10 µM) 37.6% [middle of 4 runs]. The concentration for half-maximal inhibition (IC50) (curve of compound) was 2.36 µM [middle of 4 runs].
